Test system: CHGA119 primary gastric tumor xenograft
Test: Anti-tumor activity and host response in CHGA119 patient-derived xenograft
Details: CHGA119-tumor bearing mice, ADCs 10 mg/kg i.v. q2wk, BGJ398 10 mg/kg p.o. qd
Text: In these studies, CHGA119 tumor fragments in size of 2 mm×2 mm×2 mm were implanted subcutaneously (s.c.) into female nu/nu athymic mice. […] Tumors were calipered twice a week.

SMILES: CCN1CCN(c2ccc(Nc3cc(N(C)C(=O)Nc4c(Cl)c(OC)cc(OC)c4Cl)ncn3)cc2)CC1 [BGJ398, 3-(2,6-Dichloro-3,5-dimethoxy-phenyl)-1-{6-[4-(4-ethyl-piperazin-1-yl)-phenylamino]-pyrimidin-4-yl}-1-methyl-urea]
- Host response % body weight change (mean ± SEM): −3.7 ± 3%
- Host response Mean body weight change (g ± SEM): -0.8 ± 0.7 g
- Mean tumor volume change (mm^3 ± SEM): 386 ± 169 mm^3
- Survival (survivors/total): 8/8
- Tumor response T/C (%) (after 5 weeks of treatment): 33%

Reference: patent US9498532B2, “Antibody drug conjugates” (Novartis AG, priority 2013, dated 2016)
